{
  "source": "patent US20260138958A1",
  "about": "“SUBSTITUTED N-PHENYLURACILS AND SALTS THEREOF, AND USE THEREOF AS HERBICIDAL ACTIVE SUBSTANCES” (Bayer Aktiengesellschaft, priority 2022, published 2026)",
  "assay_type_in_all_cases": "in vivo",
  "key": {"Oryza sativa (ORYSA)": {"system": "Oryza sativa (ORYSA)", "assay": "Post-emergence crop plant compatibility, greenhouse pot test", "conditions": "crop plant, post-emergence", "how_it_was_run": "(§1)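 Crops grown in sandy loam in the greenhouse were sprayed post-emergence at the one-leaf stage, 2–3 weeks after sowing, with WP or EC formulations plus 0.5% additive at 600 l/ha water. Damage was rated visually after about 3 weeks against untreated controls (0% = like control, 100% = dead).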"}, "[1]": {"system": "Triticum aestivum (TRZAS)", "assay": "Post-emergence crop plant compatibility, greenhouse pot test", "conditions": "crop plant, post-emergence, 1.25 g/ha", "how_it_was_run": "as §1"}, "Zea mays (ZEAMX)": {"system": "Zea mays (ZEAMX)", "assay": "Post-emergence crop plant compatibility, greenhouse pot test", "conditions": "crop plant, post-emergence, 1.25 g/ha", "how_it_was_run": "as §1"}, "[2]": {"system": "Polygonum convolvulus (POLCO)", "assay": "Post-emergence herbicidal action, greenhouse pot test", "how_it_was_run": "(§2)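 Weeds grown in sandy loam under controlled greenhouse conditions were sprayed at the one-leaf stage, 2 to 3 weeks after sowing, with WP or EC formulations as aqueous suspension or emulsion plus 0.5% additive at 600 l/ha water. Damage was scored visually after about 3 weeks versus untreated controls (0% = like control, 100% = dead).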"}, "[3]": {"system": "Alopecurus myosuroides (ALOMY)", "assay": "Post-emergence herbicidal action, greenhouse pot test", "how_it_was_run": "as §2"}, "Veronica persica (VERPE)": {"system": "Veronica persica (VERPE)", "assay": "Post-emergence herbicidal action, greenhouse pot test", "how_it_was_run": "as §2"}, "[4]": {"system": "Abutilon theophrasti (ABUTH)", "assay": "Post-emergence herbicidal action, greenhouse pot test", "how_it_was_run": "as §2"}, "[5]": {"system": "Tripleurospermum inodorum (MATIN)", "assay": "Post-emergence herbicidal action, greenhouse pot test", "how_it_was_run": "as §2"}, "[6]": {"system": "Pharbitis purpurea (PHBPU)", "assay": "Post-emergence herbicidal action, greenhouse pot test", "how_it_was_run": "as §2"}, "Viola tricolor (VIOTR)": {"system": "Viola tricolor (VIOTR)", "assay": "Post-emergence herbicidal action, greenhouse pot test", "how_it_was_run": "as §2"}, "[7]": {"system": "Echinochloa crus-galli (ECHCG)", "assay": "Post-emergence herbicidal action, greenhouse pot test", "how_it_was_run": "as §2"}, "Setaria viridis (SETVI)": {"system": "Setaria viridis (SETVI)", "assay": "Post-emergence herbicidal action, greenhouse pot test", "how_it_was_run": "as §2"}, "Lolium rigidum (LOLRI)": {"system": "Lolium rigidum (LOLRI)", "assay": "Post-emergence herbicidal action, greenhouse pot test", "how_it_was_run": "as §2"}, "[8]": {"system": "Amaranthus retroflexus (AMARE)", "assay": "Post-emergence herbicidal action, greenhouse pot test", "how_it_was_run": "as §2"}},
  "data": [
    {"molecule": "Cn1c(C(F)(F)F)cc(=O)n(-c2cc(Oc3ccccc3OCC(=O)OCC3CC3)c(Cl)cc2F)c1=O", "note": "[I.7-1]", "values": [
      {"measurement": "Post-emergence effect at 1.25 g/ha against ORYSA in %", "setting": "Oryza sativa (ORYSA); 1.25 g/ha", "result": 0, "unit": "%"},
      {"measurement": "Post-emergence effect at 5 g/ha against ORYSA in %", "setting": "Oryza sativa (ORYSA); 5 g/ha", "result": 20, "unit": "%"},
      {"measurement": "Post-emergence effect at 1.25 g/ha against TRZAS in %", "setting": "[1]", "result": 0, "unit": "%"},
      {"measurement": "Post-emergence effect at 1.25 g/ha against ZEAMX in %", "setting": "Zea mays (ZEAMX)", "result": 20, "unit": "%"},
      {"measurement": "Post-emergence effect at 1.25 g/ha against POLCO in %", "setting": "[2]; 1.25 g/ha", "result": 80, "unit": "%"},
      {"measurement": "Post-emergence effect at 5 g/ha against POLCO in %", "setting": "[2]; 5 g/ha", "result": 100, "unit": "%"},
      {"measurement": "Post-emergence effect at 20 g/ha against POLCO in %", "setting": "[2]; 20 g/ha", "result": 100, "unit": "%"},
      {"measurement": "Post-emergence effect at 5 g/ha against ALOMY in %", "setting": "[3]; 5 g/ha", "result": 90, "unit": "%"},
      {"measurement": "Post-emergence effect at 20 g/ha against ALOMY in %", "setting": "[3]; 20 g/ha", "result": 100, "unit": "%"},
      {"measurement": "Post-emergence effect at 1.25 g/ha against VERPE in %", "setting": "Veronica persica (VERPE); 1.25 g/ha", "result": 100, "unit": "%"},
      {"measurement": "Post-emergence effect at 5 g/ha against VERPE in %", "setting": "Veronica persica (VERPE); 5 g/ha", "result": 100, "unit": "%"},
      {"measurement": "Post-emergence effect at 20 g/ha against VERPE in %", "setting": "Veronica persica (VERPE); 20 g/ha", "result": 100, "unit": "%"},
      {"measurement": "Post-emergence effect at 1.25 g/ha against ABUTH in %", "setting": "[4]; 1.25 g/ha", "result": 90, "unit": "%"},
      {"measurement": "Post-emergence effect at 5 g/ha against ABUTH in %", "setting": "[4]; 5 g/ha", "result": 100, "unit": "%"},
      {"measurement": "Post-emergence effect at 20 g/ha against ABUTH in %", "setting": "[4]; 20 g/ha", "result": 100, "unit": "%"},
      {"measurement": "Post-emergence effect at 1.25 g/ha against MATIN in %", "setting": "[5]; 1.25 g/ha", "result": 80, "unit": "%"},
      {"measurement": "Post-emergence effect at 5 g/ha against MATIN in %", "setting": "[5]; 5 g/ha", "result": 100, "unit": "%"},
      {"measurement": "Post-emergence effect at 20 g/ha against MATIN in %", "setting": "[5]; 20 g/ha", "result": 100, "unit": "%"},
      {"measurement": "Post-emergence effect at 1.25 g/ha against PHBPU in %", "setting": "[6]; 1.25 g/ha", "result": 80, "unit": "%"},
      {"measurement": "Post-emergence effect at 5 g/ha against PHBPU in %", "setting": "[6]; 5 g/ha", "result": 100, "unit": "%"},
      {"measurement": "Post-emergence effect at 20 g/ha against PHBPU in %", "setting": "[6]; 20 g/ha", "result": 100, "unit": "%"},
      {"measurement": "Post-emergence effect at 1.25 g/ha against VIOTR in %", "setting": "Viola tricolor (VIOTR); 1.25 g/ha", "result": 100, "unit": "%"},
      {"measurement": "Post-emergence effect at 5 g/ha against VIOTR in %", "setting": "Viola tricolor (VIOTR); 5 g/ha", "result": 100, "unit": "%"},
      {"measurement": "Post-emergence effect at 20 g/ha against VIOTR in %", "setting": "Viola tricolor (VIOTR); 20 g/ha", "result": 100, "unit": "%"},
      {"measurement": "Post-emergence effect at 1.25 g/ha against ECHCG in %", "setting": "[7]; 1.25 g/ha", "result": 100, "unit": "%"},
      {"measurement": "Post-emergence effect at 5 g/ha against ECHCG in %", "setting": "[7]; 5 g/ha", "result": 100, "unit": "%"},
      {"measurement": "Post-emergence effect at 20 g/ha against ECHCG in %", "setting": "[7]; 20 g/ha", "result": 100, "unit": "%"},
      {"measurement": "Post-emergence effect at 1.25 g/ha against SETVI in %", "setting": "Setaria viridis (SETVI); 1.25 g/ha", "result": 100, "unit": "%"},
      {"measurement": "Post-emergence effect at 5 g/ha against SETVI in %", "setting": "Setaria viridis (SETVI); 5 g/ha", "result": 100, "unit": "%"},
      {"measurement": "Post-emergence effect at 20 g/ha against SETVI in %", "setting": "Setaria viridis (SETVI); 20 g/ha", "result": 100, "unit": "%"},
      {"measurement": "Post-emergence effect at 20 g/ha against LOLRI in %", "setting": "Lolium rigidum (LOLRI)", "result": 80, "unit": "%"},
      {"measurement": "Post-emergence effect at 1.25 g/ha against AMARE in %", "setting": "[8]; 1.25 g/ha", "result": 100, "unit": "%"},
      {"measurement": "Post-emergence effect at 5 g/ha against AMARE in %", "setting": "[8]; 5 g/ha", "result": 100, "unit": "%"},
      {"measurement": "Post-emergence effect at 20 g/ha against AMARE in %", "setting": "[8]; 20 g/ha", "result": 100, "unit": "%"}
    ]}
  ]
}
